From patent US20240116985A1, “STAPLED PEPTIDES AND METHODS THEREOF” (priority 2020, published 2024)
Where two headings read alike, the source gives them in different places.

Columns and labels:
[1] = target: T1, full-length beta-Catenin (Uniprot ID P35222) (Homo sapiens, UniProt P35222); experiment: Fluorescence polarization IC50 (beta-catenin / 5FAM-TCF4 10-53 competition); format: binding
T1 construct: 10 nM full-length beta-Catenin (Uniprot ID P35222)
T1 sequence (P35222 1-781): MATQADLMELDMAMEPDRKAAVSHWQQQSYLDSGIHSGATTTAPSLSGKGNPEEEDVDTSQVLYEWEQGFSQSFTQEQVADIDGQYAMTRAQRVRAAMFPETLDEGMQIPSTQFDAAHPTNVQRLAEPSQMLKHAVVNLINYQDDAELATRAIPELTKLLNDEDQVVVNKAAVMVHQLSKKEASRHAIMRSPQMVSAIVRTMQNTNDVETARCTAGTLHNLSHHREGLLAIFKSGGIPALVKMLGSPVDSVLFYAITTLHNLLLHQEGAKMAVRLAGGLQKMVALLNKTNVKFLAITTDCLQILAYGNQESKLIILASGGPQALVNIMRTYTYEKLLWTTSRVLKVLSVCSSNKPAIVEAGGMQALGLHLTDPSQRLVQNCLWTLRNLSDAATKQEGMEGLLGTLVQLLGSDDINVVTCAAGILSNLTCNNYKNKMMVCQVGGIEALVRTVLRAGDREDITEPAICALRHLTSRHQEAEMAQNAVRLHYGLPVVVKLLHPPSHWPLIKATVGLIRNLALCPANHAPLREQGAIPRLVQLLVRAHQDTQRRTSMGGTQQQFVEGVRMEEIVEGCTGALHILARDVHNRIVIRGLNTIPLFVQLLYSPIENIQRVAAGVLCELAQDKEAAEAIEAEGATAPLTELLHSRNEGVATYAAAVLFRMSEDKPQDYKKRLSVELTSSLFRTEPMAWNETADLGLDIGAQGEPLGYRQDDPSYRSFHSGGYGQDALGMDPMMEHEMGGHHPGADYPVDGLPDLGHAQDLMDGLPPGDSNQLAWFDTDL

CHI Log D procedure = format: physicochemical; conditions: pH 7.4
[2] = fluorescence polarization, read-out: beta-Catenin FP IC50

Row | SMILES | IC50 [1, 2] [nM] | IC50 ([1]; read-out: FP EC50) [nM] | CHI Log D (CHI Log D procedure)
1 | CC[C@H](C)[C@@H]1NC(=O)[C@H](CC(=O)O)NC(=O)[C@]2(CC=CCCCC3(CCCC=CCCCCCC[C@@](C)(C(=O)N[C@@H](Cc4ccccc4OC)C(=O)N[C@@H](Cc4csc5ccccc45)C(=O)N[C@@H](Cc4c[nH]cn4)C(N)=O)NC(=O)[C@H](CC(N)=O)NC(=O)[C@H](Cc4ccccc4)NC(=O)[C@H](C)NC(=O)[C@H](C)NC(=O)[C@H](CC(=O)O)NC(=O)[C@H](CC(=O)O)NC3=O)NC1=O)CCCN2C(C)=O (stereo partly drawn) [I-553, Ac-PL3-Asp-Ile-B5-Asp-Asp-Ala-Ala-Phe-Asn-S8-2OMeF-BztA-His-NH2] | 61 | 61 | 2.398
2 | CC(=O)N1CCC[C@]12CC=CCCCC1(CCCC=CCCCCCC[C@@](C)(C(=O)N[C@@H](Cc3ccccc3)C(=O)N[C@@H](Cc3csc4ccccc34)C(=O)N[C@@H](Cc3c[nH]cn3)C(N)=O)NC(=O)[C@H](CCC(N)=O)NC(=O)[C@H](Cc3ccccc3)NC(=O)[C@H](C)NC(=O)[C@H](C)NC(=O)[C@H](CC(=O)O)NC(=O)[C@H](CC(=O)O)NC1=O)NC(=O)[C@H](CC(C)C)NC(=O)[C@H](CC(=O)O)NC2=O (stereo partly drawn) [I-560, Ac-PL3-Asp-Leu-B5-Asp-Asp-Ala-Ala-Phe-Gln-S8-Phe-BztA-His-NH2] | 81 | 81 | 2.391
3 | CC[C@@H]1NC(=O)[C@H](CC(=O)O)NC(=O)[C@]2(CC=CCCCC3(CCCC=CCCCCCC[C@@](C)(C(=O)N[C@@H](Cc4ccccc4)C(=O)N[C@@H](Cc4csc5ccccc45)C(=O)N[C@@H](CCC(N)=O)C(N)=O)NC(=O)[C@H](CCC(N)=O)NC(=O)[C@H](Cc4ccccc4)NC(=O)[C@H](C)NC(=O)[C@H](C)NC(=O)[C@H](CCC(=O)O)NC(=O)[C@H](CC(=O)O)NC3=O)NC1=O)CCCN2C(C)=O (stereo partly drawn) [I-568, Ac-PL3-Asp-Abu-B5-Asp-Glu-Ala-Ala-Phe-Gln-S8-Phe-BztA-Gln-NH2] | 73 | 73 | 2.158
4 | CC[C@@H]1NC(=O)[C@H](CC(=O)O)NC(=O)[C@]2(CC=CCCCC3(CCCC=CCCCCCC[C@@](C)(C(=O)N[C@@H](Cc4ccccc4)C(=O)N[C@@H](Cc4csc5ccccc45)C(=O)N[C@@H](Cc4c[nH]cn4)C(N)=O)NC(=O)[C@H](CCC(N)=O)NC(=O)[C@H](Cc4ccccc4)NC(=O)[C@H](C)NC(=O)[C@H](C)NC(=O)[C@H](CCC(=O)O)NC(=O)[C@H](CC(=O)O)NC3=O)NC1=O)CCCN2C(C)=O (stereo partly drawn) [I-570, Ac-PL3-Asp-Abu-B5-Asp-Glu-Ala-Ala-Phe-Gln-S8-Phe-BztA-His-NH2] | 56 | 56 | 2.219
5 | CC[C@H](C)[C@@H]1NC(=O)[C@H](CC(=O)O)NC(=O)[C@]2(CC=CCCCC3(CCCC=CCCCCCC[C@@](C)(C(=O)N[C@@H](Cc4ccccc4)C(=O)N[C@@H](Cc4csc5ccccc45)C(=O)N[C@@H](Cc4c[nH]cn4)C(N)=O)NC(=O)[C@H](CCC(N)=O)NC(=O)[C@H](Cc4ccccc4)NC(=O)[C@H](C)NC(=O)[C@H](C)NC(=O)[C@H](CC(=O)O)NC(=O)[C@H](CC(=O)O)NC3=O)NC1=O)CCCN2C(C)=O (stereo partly drawn) [I-581, Ac-PL3-Asp-Ile-B5-Asp-Asp-Ala-Ala-Phe-Gln-S8-Phe-BztA-His-NH2] | 112 | 112 | 2.458
6 | CC(=O)N1CCC[C@]12CC=CCCCC1(CCCC=CCCCCCC[C@@](C)(C(=O)N[C@@H](Cc3ccccc3)C(=O)N[C@@H](Cc3csc4ccccc34)C(=O)N[C@@H](Cc3c[nH]cn3)C(N)=O)NC(=O)[C@H](CC(N)=O)NC(=O)[C@H](Cc3ccccc3)NC(=O)[C@H](C)NC(=O)[C@H](C)NC(=O)[C@H](CC(=O)O)NC(=O)[C@H](CC(=O)O)NC1=O)NC(=O)[C@H](CCC(C)C)NC(=O)[C@H](CC(=O)O)NC2=O (stereo partly drawn) [I-583, Ac-PL3-Asp-hLeu-B5-Asp-Asp-Ala-Ala-Phe-Asn-S8-Phe-BztA-His-NH2] | 69 | 69 | 2.563
7 | CC(=O)N1CCC[C@]12CC=CCCCC1(CCCC=CCCCCCC[C@@](C)(C(=O)N[C@@H](Cc3ccccc3)C(=O)N[C@@H](Cc3csc4ccccc34)C(=O)N[C@@H](CCC(N)=O)C(N)=O)NC(=O)[C@H](CCC(N)=O)NC(=O)[C@H](Cc3ccccc3)NC(=O)[C@H](C)NC(=O)[C@H](C)NC(=O)[C@H](CCC(=O)O)NC(=O)[C@H](CC(=O)O)NC1=O)NC(=O)[C@H](CCCCNC(=O)CN=[N+]=[N-])NC(=O)[C@H](CC(=O)O)NC2=O (stereo partly drawn) [I-589, Ac-PL3-Asp-[AzAc]Lys-B5-Asp-Glu-Ala-Ala-Phe-Gln-S8-Phe-BztA-Gln-NH2] |  | 48 | 2.119
8 | CC(=O)N1CCC[C@]12CC=CCCCC1(CCCC=CCCCCCC[C@@](C)(C(=O)N[C@@H](Cc3ccccc3)C(=O)N[C@@H](Cc3csc4ccccc34)C(=O)N[C@@H](CCC(N)=O)C(N)=O)NC(=O)[C@H](CCC(N)=O)NC(=O)[C@H](Cc3ccccc3)NC(=O)[C@H](C)NC(=O)[C@H](C)NC(=O)[C@H](CCC(=O)O)NC(=O)[C@H](CC(=O)O)NC1=O)NC(=O)[C@H](CCCCNC(=O)CN=[N+]=[N-])NC(=O)[C@H](CC(=O)O)NC2=O (stereo partly drawn) [I-590, Ac-PL3-Asp-[AzAc]Lys-B5-Asp-Glu-Ala-Ala-Phe-Gln-S8-Phe-BztA-Gln-NH2] |  | 45 | 2.152
9 | CC[C@H](C)[C@@H]1NC(=O)[C@H](CC(=O)O)NC(=O)[C@]2(CC=CCCCC3(CCCC=CCCCCCC[C@@](C)(C(=O)N[C@@H](Cc4ccccc4)C(=O)N[C@@H](Cc4csc5ccccc45)C(=O)N[C@@H](CCC(N)=O)C(N)=O)NC(=O)[C@H](CCC(N)=O)NC(=O)[C@H](Cc4ccccc4)NC(=O)[C@H](C)NC(=O)[C@H](CCCCNC(=O)CN=[N+]=[N-])NC(=O)[C@H](CCC(=O)O)NC(=O)[C@H](CC(=O)O)NC3=O)NC1=O)CCCN2C(C)=O (stereo partly drawn) [I-591, Ac-PL3-Asp-Ile-B5-Asp-Glu-[AzAc]Lys-Ala-Phe-Gln-S8-Phe-BztA-Gln-NH2] |  | 64 | 2.348

Continued, values first:

Row | IC50 [1, 2] [nM] | IC50 ([1]; read-out: FP EC50) [nM] | CHI Log D (CHI Log D procedure) | SMILES
10 | 56 | 56 | 2.308 | CC(=O)N1CCC[C@]12CC=CCCCC1(CCCC=CCCCCCC[C@@](C)(C(=O)N[C@@H](Cc3ccccc3)C(=O)N[C@@H](Cc3csc4ccccc34)C(=O)N[C@@H](CCC(N)=O)C(N)=O)NC(=O)[C@H](CCC(N)=O)NC(=O)[C@H](Cc3ccccc3)NC(=O)[C@H](C)NC(=O)[C@H](C)NC(=O)[C@H](CC(=O)O)NC(=O)[C@H](CC(=O)O)NC1=O)NC(=O)[C@H](CC(C)C)NC(=O)[C@H](CC(=O)O)NC2=O (stereo partly drawn) [I-558, Ac-PL3-Asp-Leu-B5-Asp-Asp-Ala-Ala-Phe-Gln-S8-Phe-BztA-Gln-NH2]
11 | 43 | 43 | 2.341 | CC(=O)N1CCC[C@]12CC=CCCCC1(CCCC=CCCCCCC[C@@](C)(C(=O)N[C@@H](Cc3ccccc3)C(=O)N[C@@H](Cc3csc4ccccc34)C(=O)N[C@@H](CCC(N)=O)C(N)=O)NC(=O)[C@H](CCC(N)=O)NC(=O)[C@H](Cc3ccccc3)NC(=O)[C@H](C)NC(=O)[C@H](C)NC(=O)[C@H](CC(=O)O)NC(=O)[C@H](CC(=O)O)NC1=O)NC(=O)[C@H](CC(C)C)NC(=O)[C@H](CC(=O)O)NC2=O (stereo partly drawn) [I-559, Ac-PL3-Asp-Leu-B5-Asp-Asp-Ala-Ala-Phe-Gln-S8-Phe-BztA-Gln-NH2]
12 | 51 | 51 | 2.269 | CC(=O)N1CCC[C@]12CC=CCCCC1(CCCC=CCCCCCC[C@@](C)(C(=O)N[C@@H](Cc3ccccc3)C(=O)N[C@@H](Cc3csc4ccccc34)C(=O)N[C@@H](CCC(N)=O)C(N)=O)NC(=O)[C@H](CC(N)=O)NC(=O)[C@H](Cc3ccccc3)NC(=O)[C@H](C)NC(=O)[C@H](C)NC(=O)[C@H](CC(=O)O)NC(=O)[C@H](CC(=O)O)NC1=O)NC(=O)[C@H](CC(C)C)NC(=O)[C@H](CC(=O)O)NC2=O (stereo partly drawn) [I-562, Ac-PL3-Asp-Leu-B5-Asp-Asp-Ala-Ala-Phe-Asn-S8-Phe-BztA-Gln-NH2]
13 | 76 | 76 | 2.175 | CC(=O)N1CCC[C@]12CC=CCCCC1(CCCC=CCCCCCC[C@@](C)(C(=O)N[C@@H](Cc3ccccc3)C(=O)N[C@@H](Cc3csc4ccccc34)C(=O)N[C@@H](CCC(N)=O)C(N)=O)NC(=O)[C@H](CC(N)=O)NC(=O)[C@H](Cc3ccccc3)NC(=O)[C@H](C)NC(=O)[C@H](C)NC(=O)[C@H](CC(=O)O)NC(=O)[C@H](CC(=O)O)NC1=O)NC(=O)[C@H](C(C)C)NC(=O)[C@H](CC(=O)O)NC2=O (stereo partly drawn) [I-566, Ac-PL3-Asp-Val-B5-Asp-Asp-Ala-Ala-Phe-Asn-S8-Phe-BztA-Gln-NH2]
14 | 73 | 73 | 2.064 | CC[C@@H]1NC(=O)[C@H](CC(=O)O)NC(=O)[C@]2(CC=CCCCC3(CCCC=CCCCCCC[C@@](C)(C(=O)N[C@@H](Cc4ccccc4)C(=O)N[C@@H](Cc4csc5ccccc45)C(=O)N[C@@H](CCC(N)=O)C(N)=O)NC(=O)[C@H](CC(N)=O)NC(=O)[C@H](Cc4ccccc4)NC(=O)[C@H](C)NC(=O)[C@H](C)NC(=O)[C@H](CC(=O)O)NC(=O)[C@H](CC(=O)O)NC3=O)NC1=O)CCCN2C(C)=O (stereo partly drawn) [I-572, Ac-PL3-Asp-Abu-B5-Asp-Asp-Ala-Ala-Phe-Asn-S8-Phe-BztA-Gln-NH2]
